Among the test systems are MDA-MB-435; MOLT-4 leukemia; T-47D breast; OVCAR-5 ovarian; SNB-75 CNS; HT29 colon; RPMI-8226 leukemia; SK-MEL-28 melanoma; EKVX NSCLC.
Assay in all cases: NCI tumour cell line growth inhibition, 48 h

This note sets out measurements from PubChem BioAssay (NCI).

SMILES strings stand for the structures.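 48-hour exposure; five concentrations; linearly interpolated endpoints. Abbreviation: GI50, concentration required for 50% inhibition of growth. TGI denotes the concentration required for complete inhibition of growth.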

As to `CS[C@@]1(C(=O)Nc2ccc3[nH]nc(-c4ccc(OC(C)C)nc4)c3c2)CCN(CC(=O)N2CC=C(c3ccc(-c4ncn(C)n4)cc3)CC2)C1`, the GI50 in the test with MDA-MB-435 was 0.355 µM; in the test with MOLT-4 leukemia it was 5.26 µM; in the test on T-47D breast, 27.9 µM; in the test on OVCAR-5 ovarian it was 0.131 µM; in the test with SNB-75 CNS it was greater than 100 µM; in the test on HT29 colon it was 0.0368 µM. Besides, the results for the GI50 in the test on RPMI-8226 leukemia and in the test on SK-MEL-28 melanoma were 2.21 µM and 0.0293 µM, respectively. Moreover, the TGI in the test on MDA-MB-435, in the test on MOLT-4 leukemia, with T-47D breast, in the test with OVCAR-5 ovarian, in the test with SNB-75 CNS and in the test on HT29 colon was greater than 100 µM throughout. Moreover, the TGI in the test with RPMI-8226 leukemia is greater than 100 µM; with SK-MEL-28 melanoma, 0.441 µM.
On to `CCOC(=O)c1c(C(F)(F)F)oc2c1ccc1nc3nonc3nc12`, for which the TGI is 12.6 µM in the test with MOLT-4 leukemia; 33.3 µM in the test on EKVX NSCLC; 31.6 µM with OVCAR-5 ovarian; 30 µM in the test on SNB-75 CNS; 28.9 µM with HT29 colon; greater than 42.3 µM in the test with RPMI-8226 leukemia. This molecule returned a TGI in the test on SK-MEL-28 melanoma of 27.3 µM.
Take `O=C(/C=C/c1ccc(Cl)c(Cl)c1)C1CCC(Cl)CC1` (stereo not drawn): the TGI in the test on EKVX NSCLC worked out at 32 µM; in the test with OVCAR-5 ovarian, 43.3 µM; with SNB-75 CNS, 44.3 µM; in the test on HT29 colon, 31.7 µM; in the test with RPMI-8226 leukemia it was 21 µM; in the test with SK-MEL-28 melanoma, 31.4 µM.
For the molecule `CC(C)NC(=O)O/N=C1\CCC2[C@@H]3CC=C4C[C@@H](OC(=O)NC(C)C)CC[C@]4(C)C3CC[C@]12C` (stereo partly drawn), the TGI in the test on MOLT-4 leukemia was 4.81 µM; in the test with EKVX NSCLC, 3.42 µM; with OVCAR-5 ovarian, 4.26 µM; in the test with SNB-75 CNS, 3.74 µM; with HT29 colon it was 8.87 µM; in the test on RPMI-8226 leukemia it was 2.96 µM. In the test on SK-MEL-28 melanoma, this molecule showed a TGI of 3.26 µM.
Turning to `O=C1CCC(=O)C(C(=O)CCC(=O)Nc2cccc(Cl)c2)C1` (stereo not drawn), the TGI in the test on MOLT-4 leukemia, with EKVX NSCLC, with OVCAR-5 ovarian, in the test with SNB-75 CNS, in the test on HT29 colon and in the test with RPMI-8226 leukemia was greater than 100 µM each time.
On to `OC1C2C=CCC1CCC2` (stereo not drawn), for which the TGI in the test on MOLT-4 leukemia, in the test on EKVX NSCLC, in the test on OVCAR-5 ovarian, with SNB-75 CNS, in the test with HT29 colon and in the test with RPMI-8226 leukemia was greater than 100 µM in each case. The TGI with SK-MEL-28 melanoma was greater than 100 µM.
Turning to `COC(=O)C(=O)C1CCCCC(C2=NC3NN=C(N)N3C2=O)C1=O` (stereo not drawn), the TGI in the test on MOLT-4 leukemia, in the test with EKVX NSCLC, in the test on OVCAR-5 ovarian, in the test with SNB-75 CNS, in the test with HT29 colon and with SK-MEL-28 melanoma was greater than 100 µM each time.
For the molecule `O=C1C2Nc3ccccc3SC2C(=O)N1c1cccc([N+](=O)[O-])c1` (stereo not drawn), the TGI in the test on MOLT-4 leukemia, with EKVX NSCLC, in the test with OVCAR-5 ovarian, with SNB-75 CNS, in the test with HT29 colon and in the test with RPMI-8226 leukemia was greater than 100 µM in each case. In the test with SK-MEL-28 melanoma, the TGI was greater than 100 µM.
For `N#CC(C#N)=Cc1ccc(-c2ccc(-c3nc4ccccc4o3)cc2)o1`, the GI50 with MDA-MB-435 was 57 µM; with MOLT-4 leukemia, 12.1 µM; in the test on T-47D breast, 5.04 µM; in the test on EKVX NSCLC it was greater than 100 µM; in the test on OVCAR-5 ovarian, 27.1 µM; with SNB-75 CNS, greater than 100 µM. Further, the GI50 in the test on HT29 colon is 41.2 µM; with SK-MEL-28 melanoma it was greater than 100 µM. Further, the TGI in the test on MDA-MB-435 is greater than 100 µM; in the test with MOLT-4 leukemia it was greater than 100 µM; in the test on T-47D breast it was 90.1 µM; in the test on EKVX NSCLC it was greater than 100 µM; in the test with OVCAR-5 ovarian it was 52 µM; in the test on SNB-75 CNS, greater than 100 µM. The TGI in the test on HT29 colon and with SK-MEL-28 melanoma was greater than 100 µM throughout.
`C=C1CC(C/C=C(\C)CC2CC(=C)C(=O)O2)OC1=O` (stereo not drawn): the TGI with MOLT-4 leukemia, with EKVX NSCLC, in the test with OVCAR-5 ovarian, with SNB-75 CNS, with HT29 colon and in the test with SK-MEL-28 melanoma was greater than 100 µM each time.
On to `Cc1cccc(N=C2NC(=O)C(CC(=O)Nc3ccc(Cl)cc3C)S2)c1` (stereo not drawn), for which the TGI with MOLT-4 leukemia, with EKVX NSCLC, in the test on OVCAR-5 ovarian, in the test on SNB-75 CNS, in the test on HT29 colon and with RPMI-8226 leukemia was greater than 100 µM in each case. Moreover, in the test on SK-MEL-28 melanoma, the TGI was greater than 100 µM.
Regarding `CC(C)(C)C(=O)[CH-]C(=O)C(F)(F)C(F)(F)C(F)(F)F.CC(C)(C)C(=O)[CH-]C(=O)C(F)(F)C(F)(F)C(F)(F)F.[O-]CC1OC(O)C(O)C(O)C1O.[O-]CC1OC(O)C(O)C(O)C1O.[Ti+4]`, the TGI with MOLT-4 leukemia, with EKVX NSCLC, in the test with OVCAR-5 ovarian, in the test with HT29 colon, in the test on RPMI-8226 leukemia and in the test with SK-MEL-28 melanoma was greater than 100 µM throughout.
Consider `O=c1[nH]c2c(O)cccc2c2cc3c(c(O)c12)OCO3`, for which the TGI is greater than 100 µM in the test on MOLT-4 leukemia; 77.4 µM with EKVX NSCLC; greater than 100 µM in the test with SNB-75 CNS; 50.6 µM in the test on HT29 colon; 92 µM in the test on RPMI-8226 leukemia.
With `Cc1cc(=O)[nH]c(CNC(=O)Cc2ccccc2)n1`, the TGI with MOLT-4 leukemia, in the test on EKVX NSCLC, with OVCAR-5 ovarian, in the test with SNB-75 CNS, in the test on HT29 colon and with RPMI-8226 leukemia was greater than 100 µM throughout. The TGI in the test with SK-MEL-28 melanoma was greater than 100 µM.
As to `CCOc1ccc(NC(=O)CCC(=O)NN)cc1`, the TGI in the test with MOLT-4 leukemia, in the test on EKVX NSCLC, in the test on OVCAR-5 ovarian, in the test with SNB-75 CNS, in the test with HT29 colon and with RPMI-8226 leukemia was greater than 100 µM in each case. In addition, in the test on SK-MEL-28 melanoma, the TGI was greater than 100 µM.
Consider `O=[N+]([O-])c1cc(/C=N/NS(=O)(=O)c2ccc(F)cc2)c(O)c([N+](=O)[O-])c1`, for which the TGI in the test with MOLT-4 leukemia was 88.6 µM; in the test on EKVX NSCLC, greater than 100 µM; in the test with OVCAR-5 ovarian, greater than 100 µM; with SNB-75 CNS, 76.9 µM; in the test on HT29 colon, 64.6 µM; in the test with RPMI-8226 leukemia, greater than 100 µM. The TGI in the test with SK-MEL-28 melanoma is greater than 100 µM.
